Among the data in patent publication US20070049593A1 (priority 2004, published 2007) are IC50 values, retold here.

This assay has as its target T1, HCV polymerase (Hepatitis C virus genotype 1b, UniProt P26663).
T1 construct: a region encoding NS5B (J Virol 1991 March, 65(3), 1105-13, 544 amino acids after deletion of 47 amino acids on the C-terminal); 6xHis (C); made in house; host or cells: Escherichia coli
The experiment in a line: biochemical. Set-up: species or system HCV BK strain. The essentials:
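His-tagged NS5B (BK strain, 47-aa C-terminal deletion, E. coli-expressed) at 0.5 μg/ml copied 5 μg/ml run-off RNA bearing the HCV 3′ UTR with 2 μM UTP plus [3H]UTP, 50 μM ATP/GTP, in pH 7.5 Tris with 5 mM MgCl2, 25 °C, 90 min. TCA-precipitated RNA was counted and IC50 calculated.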

Where a name gives a salt, the structure may show the parent alone.

T1 sequence (P26663 2420-2963): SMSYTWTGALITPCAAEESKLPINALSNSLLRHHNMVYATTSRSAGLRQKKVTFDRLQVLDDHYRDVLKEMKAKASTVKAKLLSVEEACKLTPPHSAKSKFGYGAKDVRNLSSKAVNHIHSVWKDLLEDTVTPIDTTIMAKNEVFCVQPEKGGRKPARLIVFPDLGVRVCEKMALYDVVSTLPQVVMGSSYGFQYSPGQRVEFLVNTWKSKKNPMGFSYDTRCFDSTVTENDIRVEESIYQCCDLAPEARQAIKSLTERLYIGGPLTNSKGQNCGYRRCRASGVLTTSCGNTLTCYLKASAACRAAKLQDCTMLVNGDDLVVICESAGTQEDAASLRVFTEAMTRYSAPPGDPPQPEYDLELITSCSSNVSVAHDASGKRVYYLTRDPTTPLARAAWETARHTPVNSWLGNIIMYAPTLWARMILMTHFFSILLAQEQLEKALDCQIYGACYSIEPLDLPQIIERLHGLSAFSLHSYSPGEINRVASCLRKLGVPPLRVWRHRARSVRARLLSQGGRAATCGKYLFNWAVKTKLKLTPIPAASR

`O=C(O)c1ccc2c(C3CCCCC3)c3n(c2c1)CCN(CCCN1CCCCC1)c1cc(Cl)ccc1-3` [Example 1-242, 3-chloro-13-cyclohexyl-5-[3-(piperidin-1-yl)propyl]-6,7-dihydro-5H-benzo[5,6][1,4]diazepino[7,1-a]indole-10-carboxylic acid dihydrochloride] returned an IC50 of less than 100 nM.

With `CCN1CCC(CCN2CCn3c(c(C4CCCCC4)c4ccc(C(=O)O)cc43)-c3ccc(Cl)cc32)CC1` [Example 1-243, 3-chloro-13-cyclohexyl-5-[2-(1-ethylpiperidin-4-yl)ethyl]-6,7-dihydro-5H-benzo[5,6][1,4]diazepino[7,1-a]indole-10-carboxylic acid dihydrochloride], the IC50 is less than 100 nM.

`O=C(O)c1ccc2c(C3CCCCC3)c3n(c2c1)CCN(CCC1CCNCC1)c1cc(Cl)ccc1-3` [Example 1-244, 3-chloro-13-cyclohexyl-5-[2-(piperidin-4-yl)ethyl]-6,7-dihydro-5H-benzo[5,6][1,4]diazepino[7,1-a]indole-10-carboxylic acid dihydrochloride] displayed an IC50 of less than 100 nM.

Consider `O=C(O)c1ccc2c(C3CCCCC3)c3n(c2c1)CCN(CCCN1CCCCCC1)c1cc(Cl)ccc1-3` [Example 1-245, 5-[3-(azepan-1-yl)propyl]-3-chloro-13-cyclohexyl-6,7-dihydro-5H-benzo[5,6][1,4]diazepino[7,1-a]indole-10-carboxylic acid dihydrochloride], for which the IC50 is less than 100 nM.

`CN1CCC(CCN2CCn3c(c(C4CCCCC4)c4ccc(C(=O)O)cc43)-c3ccc(Cl)cc32)CC1` [Example 1-246, 3-chloro-13-cyclohexyl-5-[2-(1-methylpiperidin-4-yl)ethyl]-6,7-dihydro-5H-benzo[5,6][1,4]diazepino[7,1-a]indole-10-carboxylic acid dihydrochloride] gave a half-inhibitory concentration (IC50) of less than 100 nM.

As to `CN(C)CCCN1CCn2c(c(C3CCCCC3)c3ccc(C(=O)O)cc32)-c2ccc(Cl)cc21` [Example 1-247, 3-chloro-13-cyclohexyl-5-(3-dimethylaminopropyl)-6,7-dihydro-5H-benzo[5,6][1,4]diazepino[7,1-a]indole-10-carboxylic acid dihydrochloride], the IC50 was less than 100 nM.

`O=C(O)c1ccc2c(C3CCCCC3)c3n(c2c1)CCN(CCN1CCCCC1)c1cc(F)c(F)cc1-3` [Example 1-248, 13-cyclohexyl-2,3-difluoro-5-[2-(piperidin-1-yl)ethyl]-6,7-dihydro-5H-benzo[5,6][1,4]diazepino[7,1-a]indole-10-carboxylic acid dihydrochloride] displayed an IC50 of less than 100 nM.

Compound `CCC1CCCN(CCN2CCn3c(c(C4CCCCC4)c4ccc(C(=O)O)cc43)-c3ccc(Cl)cc32)C1` (stereo not shown) [Example 1-249, 3-chloro-13-cyclohexyl-5-[2-(3-ethylpiperidin-1-yl)ethyl]-6,7-dihydro-5H-benzo[5,6][1,4]diazepino[7,1-a]indole-10-carboxylic acid dihydrochloride] returned a 50% inhibitory concentration (IC50) of less than 100 nM.

Take `COC(=O)N1CCC(N(C)CCN2CCn3c(c(C4CCCCC4)c4ccc(C(=O)O)cc43)-c3ccccc32)C1` (stereo not shown) [Example 1-250, 13-cyclohexyl-5-{2-[N-(1-methoxycarbonylpyrrolidin-3-yl)-N-methylamino]ethyl}-6,7-dihydro-5H-benzo[5,6][1,4]diazepino[7,1-a]indole-10-carboxylic acid monohydrochloride]: the IC50 is less than 100 nM.

`CC(=O)N1CCC(N(C)CCN2CCn3c(c(C4CCCCC4)c4ccc(C(=O)O)cc43)-c3ccccc32)C1` (stereo not shown) [Example 1-251, 5-{2-[N-(1-acetylpyrrolidin-3-yl)-N-methylamino]ethyl}-13-cyclohexyl-6,7-dihydro-5H-benzo[5,6][1,4]diazepino[7,1-a]indole-10-carboxylic acid monohydrochloride]: the IC50 was less than 100 nM.

For `CN(CCN1CCn2c(c(C3CCCCC3)c3ccc(C(=O)O)cc32)-c2ccccc21)C1CCN(S(C)(=O)=O)C1` (stereo not shown) [Example 1-252, 13-cyclohexyl-5-{2-[N-(1-methanesulfonylpyrrolidin-3-yl)-N-methylamino]ethyl}-6,7-dihydro-5H-benzo[5,6][1,4]diazepino[7,1-a]indole-10-carboxylic-acid], the IC50 was less than 100 nM.

`Cc1ccc2c(c1)N(CCN1CCCC(C)C1)CCn1c-2c(C2CCCCC2)c2ccc(C(=O)O)cc21` (stereo not shown) [Example 1-253, 13-cyclohexyl-3-methyl-5-[2-(3-methylpiperidin-1-yl)ethyl]-6,7-dihydro-5H-benzo[5,6][1,4]diazepino[7,1-a]indole-10-carboxylic acid dihydrochloride] registered an IC50 of less than 100 nM.

`CC1CCCN(CCN2CCn3c(c(C4CCCCC4)c4ccc(C(=O)O)cc43)-c3ccc(F)cc32)C1` (stereo not shown) [Example 1-254, 13-cyclohexyl-3-fluoro-5-[2-(3-methylpiperidin-1-yl)ethyl]-6,7-dihydro-5H-benzo[5,6][1,4]diazepino[7,1-a]indole-10-carboxylic acid dihydrochloride] had an IC50 of less than 100 nM.

`CC1CN(CCN2CCn3c(c(C4CCCCC4)c4ccc(C(=O)O)cc43)-c3ccccc32)CCO1` (stereo not shown) [Example 1-255, 13-cyclohexyl-5-[2-(2-methylmorpholin-4-yl)ethyl]-6,7-dihydro-5H-benzo[5,6][1,4]diazepino[7,1-a]indole-10-carboxylic acid dihydrochloride] came in with an IC50 of less than 100 nM.

The compound `CCC1CN(CCN2CCn3c(c(C4CCCCC4)c4ccc(C(=O)O)cc43)-c3ccccc32)CCO1` (stereo not shown) [Example 1-256, 13-cyclohexyl-5-[2-(2-ethylmorpholin-4-yl)ethyl]-6,7-dihydro-5H-benzo[5,6][1,4]diazepino[7,1-a]indole-10-carboxylic acid dihydrochloride] displayed an IC50 of less than 100 nM.

Compound `CCC1COCCN1CCN1CCn2c(c(C3CCCCC3)c3ccc(C(=O)O)cc32)-c2ccccc21` (stereo not shown) [Example 1-257, 13-cyclohexyl-5-[2-(3-ethylmorpholin-4-yl)ethyl]-6,7-dihydro-5H-benzo[5,6][1,4]diazepino[7,1-a]indole-10-carboxylic acid dihydrochloride] gave an IC50 of less than 100 nM.

For the compound `Cc1ccc2c(c1)N(CCN1CCCCC1C)CCn1c-2c(C2CCCCC2)c2ccc(C(=O)O)cc21` (stereo not shown) [Example 1-258, 13-cyclohexyl-3-methyl-5-[2-(2-methylpiperidin-1-yl)ethyl]-6,7-dihydro-5H-benzo[5,6][1,4]diazepino[7,1-a]indole-10-carboxylic acid dihydrochloride], the IC50 was less than 100 nM.

In the case of `Cc1ccc2c(c1)N(CCN1CCC(C)CC1)CCn1c-2c(C2CCCCC2)c2ccc(C(=O)O)cc21` [Example 1-259, 13-cyclohexyl-3-methyl-5-[2-(4-methylpiperidin-1-yl)ethyl]-6,7-dihydro-5H-benzo[5,6][1,4]diazepino[7,1-a]indole-10-carboxylic acid dihydrochloride], the IC50 was less than 100 nM.

`Cc1ccc2c(c1)N(CCN1CCCC1)CCn1c-2c(C2CCCCC2)c2ccc(C(=O)O)cc21` [Example 1-260, 13-cyclohexyl-3-methyl-5-[2-(pyrrolidin-1-yl)ethyl]-6,7-dihydro-5H-benzo[5,6][1,4]diazepino[7,1-a]indole-10-carboxylic acid dihydrochloride] showed an IC50 of less than 100 nM.

Consider `CCN1CCCC(CCN2CCn3c(c(C4CCCCC4)c4ccc(C(=O)O)cc43)-c3ccc(Cl)cc32)C1` (stereo not shown) [Example 1-261, 3-chloro-13-cyclohexyl-5-[2-(1-ethylpiperidin-3-yl)ethyl]-6,7-dihydro-5H-benzo[5,6][1,4]diazepino[7,1-a]indole-10-carboxylic acid dihydrochloride], for which the IC50 is less than 100 nM.

Turning to `CN1CCC(OCCN2CCn3c(c(C4CCCCC4)c4ccc(C(=O)O)cc43)-c3ccc(Cl)cc32)CC1` [Example 1-262, 3-chloro-13-cyclohexyl-5-[2-(1-methylpiperidin-4-yloxy)ethyl]-6,7-dihydro-5H-benzo[5,6][1,4]diazepino[7,1-a]indole-10-carboxylic acid dihydrochloride], the IC50 is less than 100 nM.

With `CC(C)CN1CCCC(CCN2CCn3c(c(C4CCCCC4)c4ccc(C(=O)O)cc43)-c3ccc(Cl)cc32)C1` (stereo not shown) [Example 1-263, 3-chloro-13-cyclohexyl-5-[2-(1-isobutylpiperidin-3-yl)ethyl]-6,7-dihydro-5H-benzo[5,6][1,4]diazepino[7,1-a]indole-10-carboxylic acid dihydrochloride], the half-inhibitory concentration (IC50) is less than 100 nM.

Take `O=C(O)c1ccc2c(C3CCCCC3)c3n(c2c1)CCN(CCC1CCCN(C2CCCC2)C1)c1cc(Cl)ccc1-3` (stereo not shown) [Example 1-264, 3-chloro-13-cyclohexyl-5-[2-(1-cyclopentylpiperidin-3-yl)ethyl]-6,7-dihydro-5H-benzo[5,6][1,4]diazepino[7,1-a]indole-10-carboxylic acid dihydrochloride]: the IC50 was less than 100 nM.

Compound `COC1CCCN(CCN2CCn3c(c(C4CCCCC4)c4ccc(C(=O)O)cc43)-c3ccc(Cl)cc32)C1` (stereo not shown) [Example 1-265, 3-chloro-13-cyclohexyl-5-[2-(3-methoxypiperidin-1-yl)ethyl]-6,7-dihydro-5H-benzo[5,6][1,4]diazepino[7,1-a]indole-10-carboxylic acid dihydrochloride] displayed an IC50 of less than 100 nM.

In the case of `COC1CCCN(CCN2CCn3c(c(C4CCCCC4)c4ccc(C(=O)O)cc43)-c3ccc(C)cc32)C1` (stereo not shown) [Example 1-266, 13-cyclohexyl-5-[2-(3-methoxypiperidin-1-yl)ethyl]-3-methyl-6,7-dihydro-5H-benzo[5,6][1,4]diazepino[7,1-a]indole-10-carboxylic acid dihydrochloride], the IC50 is less than 100 nM.
